Calls of active or inactive are those of the source.
Columns and labels:
Cytochrome P450 3A4 = Cytochrome P450 3A4 (Homo sapiens, UniProt P08684);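 note: CYP3A4 tested as one member of a cytochrome P450 panel screen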
[1] = biological target: T1, Endoribonuclease toxin MazF (Escherichia coli K-12, UniProt P0AE70); assay: MazF toxin RNase activators, dose response, biochemical, fluorescence, single-stranded RNA substrate, uHTS hits (AID 588481); type: functional
T1 sequence (P0AE70 whole entry): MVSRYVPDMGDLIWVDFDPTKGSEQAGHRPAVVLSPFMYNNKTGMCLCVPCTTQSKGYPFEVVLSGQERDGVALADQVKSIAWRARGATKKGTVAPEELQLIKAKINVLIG

[2] = biological target: T1, Endoribonuclease toxin MazF; assay: fluorescent RNA oligo signal without MazF, dose response, counter-screen for MazEF activator project, biochemical, fluorescence, single-stranded RNase substrate (AID 588502); type: functional
Aminopeptidase N = biological target: T2, Aminopeptidase N (Plasmodium falciparum FcB1/Columbia, UniProt O96935); assay: P. falciparum M1AAP inhibitors, biochemical, fluorogenic H-Leu-NHMec substrate, 1536-well (AID 1445); design: species or system Plasmodium falciparum 3D7, 3D7
T2 sequence (O96935 whole entry): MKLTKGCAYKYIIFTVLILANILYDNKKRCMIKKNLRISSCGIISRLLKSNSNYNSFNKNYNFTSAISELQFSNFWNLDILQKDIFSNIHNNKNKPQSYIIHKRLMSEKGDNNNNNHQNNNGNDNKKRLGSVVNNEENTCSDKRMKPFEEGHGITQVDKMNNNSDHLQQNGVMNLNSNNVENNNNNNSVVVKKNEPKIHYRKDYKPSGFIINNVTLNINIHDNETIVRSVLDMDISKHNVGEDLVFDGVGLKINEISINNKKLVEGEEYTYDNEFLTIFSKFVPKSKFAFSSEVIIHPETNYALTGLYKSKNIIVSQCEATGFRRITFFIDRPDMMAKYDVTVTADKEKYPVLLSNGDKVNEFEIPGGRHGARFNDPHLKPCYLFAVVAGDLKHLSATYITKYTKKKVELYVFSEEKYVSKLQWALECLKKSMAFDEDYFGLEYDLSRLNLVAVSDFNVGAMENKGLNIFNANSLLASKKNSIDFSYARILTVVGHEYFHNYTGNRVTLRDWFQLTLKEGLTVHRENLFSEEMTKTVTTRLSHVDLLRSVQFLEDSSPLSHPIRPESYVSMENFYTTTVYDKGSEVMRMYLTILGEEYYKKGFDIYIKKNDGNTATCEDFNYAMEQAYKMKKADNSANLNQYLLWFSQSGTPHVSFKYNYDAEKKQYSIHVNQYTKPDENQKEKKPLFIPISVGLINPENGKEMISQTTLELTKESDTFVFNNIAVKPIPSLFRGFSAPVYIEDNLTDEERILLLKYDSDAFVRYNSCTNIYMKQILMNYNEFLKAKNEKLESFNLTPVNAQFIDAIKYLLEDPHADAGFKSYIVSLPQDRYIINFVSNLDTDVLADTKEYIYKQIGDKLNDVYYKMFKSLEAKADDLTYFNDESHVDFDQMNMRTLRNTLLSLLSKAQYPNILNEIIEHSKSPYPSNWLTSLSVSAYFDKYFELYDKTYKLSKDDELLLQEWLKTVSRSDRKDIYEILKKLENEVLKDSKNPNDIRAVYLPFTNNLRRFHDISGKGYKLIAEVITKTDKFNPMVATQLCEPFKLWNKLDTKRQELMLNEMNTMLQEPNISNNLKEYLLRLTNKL

SUMO-activating enzyme [3] = biological target: T3, SUMO-activating enzyme (Homo sapiens, UniProt Q9UBT2); assay: SUMOylation inhibitor hit validation, confirmation, SUMOylation inhibitor project, biochemical, AlphaScreen (AID 2018); type: functional
T3 sequence (Q9UBE0 whole entry): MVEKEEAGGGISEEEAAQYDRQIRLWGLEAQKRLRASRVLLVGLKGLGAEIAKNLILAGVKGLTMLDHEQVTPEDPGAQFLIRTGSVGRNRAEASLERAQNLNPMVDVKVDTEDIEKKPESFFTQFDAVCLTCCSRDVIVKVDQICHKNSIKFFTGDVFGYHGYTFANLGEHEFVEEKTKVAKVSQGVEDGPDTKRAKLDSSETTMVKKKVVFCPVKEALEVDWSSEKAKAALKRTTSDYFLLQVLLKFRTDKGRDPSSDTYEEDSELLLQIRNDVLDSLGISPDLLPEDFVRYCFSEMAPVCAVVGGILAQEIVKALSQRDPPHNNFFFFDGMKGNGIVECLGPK
T3 sequence (Q9UBT2 whole entry): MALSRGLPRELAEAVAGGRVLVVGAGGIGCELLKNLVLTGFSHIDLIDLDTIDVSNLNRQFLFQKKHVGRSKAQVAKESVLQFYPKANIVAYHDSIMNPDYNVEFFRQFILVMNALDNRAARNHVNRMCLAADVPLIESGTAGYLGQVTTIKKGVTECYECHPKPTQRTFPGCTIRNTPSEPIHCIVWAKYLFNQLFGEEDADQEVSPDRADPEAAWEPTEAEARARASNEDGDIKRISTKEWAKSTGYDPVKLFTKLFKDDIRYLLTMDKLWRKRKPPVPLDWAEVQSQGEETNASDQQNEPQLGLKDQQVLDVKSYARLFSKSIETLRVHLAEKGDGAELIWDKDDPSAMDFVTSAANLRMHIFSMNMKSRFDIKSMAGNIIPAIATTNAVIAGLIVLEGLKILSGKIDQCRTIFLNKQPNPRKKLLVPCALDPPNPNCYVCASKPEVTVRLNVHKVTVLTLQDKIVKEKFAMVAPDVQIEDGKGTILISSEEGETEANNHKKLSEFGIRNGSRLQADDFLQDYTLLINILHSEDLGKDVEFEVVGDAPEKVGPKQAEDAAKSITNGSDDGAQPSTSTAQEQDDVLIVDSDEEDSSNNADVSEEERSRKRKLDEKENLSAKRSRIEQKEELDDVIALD

SUMO-activating enzyme [4] = biological target: T3, SUMO-activating enzyme; assay: inhibitors of in vitro SUMOylation cascade, primary screen, biochemical, HTRF, uHTS (AID 2006); type: protein-complex assay
[5] = biological target: Induced myeloid leukemia cell differentiation protein Mcl-1 (Homo sapiens, UniProt Q07820); type: functional
Sequence of Induced myeloid leukemia cell differentiation protein Mcl-1 (Q07820 whole entry): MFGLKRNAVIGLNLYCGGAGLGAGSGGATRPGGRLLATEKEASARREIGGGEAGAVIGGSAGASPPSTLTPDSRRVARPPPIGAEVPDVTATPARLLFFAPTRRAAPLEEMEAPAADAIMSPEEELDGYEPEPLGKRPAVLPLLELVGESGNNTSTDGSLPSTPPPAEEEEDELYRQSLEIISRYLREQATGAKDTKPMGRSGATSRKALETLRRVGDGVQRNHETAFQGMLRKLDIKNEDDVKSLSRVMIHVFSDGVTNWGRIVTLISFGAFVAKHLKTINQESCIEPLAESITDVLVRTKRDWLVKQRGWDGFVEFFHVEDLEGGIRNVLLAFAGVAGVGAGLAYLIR

Cytochrome P450 2C19 = Cytochrome P450 2C19 (Homo sapiens, UniProt P33261); assay: Cytochrome panel assay with activity outcomes. Panel member name: p450-cyp2c19 Compounds with AC50 equal or less than 10 uM are considered active; type: functional; conditions: read-out: AC50
Sequence of Cytochrome P450 2C19 (P33261 whole entry): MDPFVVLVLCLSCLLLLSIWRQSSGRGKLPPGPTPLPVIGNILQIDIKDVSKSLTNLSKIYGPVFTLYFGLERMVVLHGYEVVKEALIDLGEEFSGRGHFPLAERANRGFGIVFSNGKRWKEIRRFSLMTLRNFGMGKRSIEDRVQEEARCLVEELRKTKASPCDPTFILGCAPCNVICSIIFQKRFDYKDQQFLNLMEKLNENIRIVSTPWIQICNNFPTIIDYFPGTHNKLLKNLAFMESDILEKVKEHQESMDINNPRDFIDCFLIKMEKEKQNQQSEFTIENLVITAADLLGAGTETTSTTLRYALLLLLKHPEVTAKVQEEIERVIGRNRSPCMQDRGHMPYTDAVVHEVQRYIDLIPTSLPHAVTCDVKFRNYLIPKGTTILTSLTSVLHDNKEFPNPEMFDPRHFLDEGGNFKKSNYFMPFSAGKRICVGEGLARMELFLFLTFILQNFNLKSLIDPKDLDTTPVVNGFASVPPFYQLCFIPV

Cytochrome P450 2C9 = Cytochrome P450 2C9 (Homo sapiens, UniProt P11712)
Sequence of Cytochrome P450 2C9 (P11712 whole entry): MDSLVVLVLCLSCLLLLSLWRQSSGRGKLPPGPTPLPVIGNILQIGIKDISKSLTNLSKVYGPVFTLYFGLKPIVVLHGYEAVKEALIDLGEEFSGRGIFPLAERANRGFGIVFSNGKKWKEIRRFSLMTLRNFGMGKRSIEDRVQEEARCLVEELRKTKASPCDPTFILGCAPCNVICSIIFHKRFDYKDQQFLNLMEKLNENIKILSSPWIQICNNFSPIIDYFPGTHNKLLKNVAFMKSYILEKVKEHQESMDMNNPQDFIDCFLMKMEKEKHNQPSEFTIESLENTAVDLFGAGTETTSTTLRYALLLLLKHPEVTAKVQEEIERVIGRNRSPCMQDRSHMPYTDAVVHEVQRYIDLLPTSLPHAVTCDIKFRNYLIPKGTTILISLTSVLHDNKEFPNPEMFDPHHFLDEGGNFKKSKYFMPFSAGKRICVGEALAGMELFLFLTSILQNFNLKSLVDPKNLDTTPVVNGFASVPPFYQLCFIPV

Bcl-2-related protein A1 = biological target: T4, Bcl-2-related protein A1 (Mus musculus, UniProt Q07440); type: functional;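 note: confirmatory dose–response counterscreen on Bfl-1, used to check hits from a UBC13 polyubiquitin inhibitor campaign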
T4 sequence (Q07440 whole entry): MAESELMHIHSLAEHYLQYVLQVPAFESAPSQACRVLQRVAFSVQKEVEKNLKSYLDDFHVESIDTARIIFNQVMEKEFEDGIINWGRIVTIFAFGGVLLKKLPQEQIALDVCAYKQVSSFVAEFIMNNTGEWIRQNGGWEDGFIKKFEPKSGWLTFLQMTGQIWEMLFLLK

[6] = biological target: T5, Ubiquitin-conjugating enzyme E2 N (Homo sapiens, UniProt P61088); type: functional
T5 sequence (P61088 whole entry): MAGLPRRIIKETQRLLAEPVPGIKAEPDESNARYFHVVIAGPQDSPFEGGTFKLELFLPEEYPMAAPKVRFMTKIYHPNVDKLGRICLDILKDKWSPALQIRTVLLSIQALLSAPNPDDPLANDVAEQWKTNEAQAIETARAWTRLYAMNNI

[7] = biological target: T5, Ubiquitin-conjugating enzyme E2 N; type: functional; remark: listed apart in the source
[8] = NIH-3T3 fibroblast cytotoxicity, dose response, cytotoxicity control, cell-based, fluorescence, Alamar Blue, secondary assay (AID 2327); type: functional;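 note: NIH-3T3 mouse fibroblasts cultured with fluconazole at 8 µg/mL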
[9] = C. albicans growth with fluconazole, confirmation, fluorescence, retest (AID 2467); type: functional, cell-based
[10] = inhibitors of intracellular T. cruzi replication, confirmation, NIH3T3 host cells, beta-gal luminescence (AID 2044); type: functional, cell-based;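 note: intracellular parasites grown in NIH/3T3 mouse fibroblasts as host cells; luminescent beta-galactosidase reporter signal from transgenic T. cruzi replicating inside host cells; inhibitors lower the luminescence signal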
[11] = cytotoxicity toward NIH3T3 fibroblasts, dose response, counter-screen, cell-based, ATP luminescence, mouse fibroblasts (AID 2010); type: functional;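 note: cells exposed to compound for about 90 hours before reading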
[12] = biological target: T6, Microphthalmia-associated transcription factor (Homo sapiens, UniProt O75030); assay: TRPM1 promoter luciferase signal decrease, dose response, MITF inhibitor project, cell-based, SK-MEL-5, cherry-picked, set 3 (AID 493073); type: functional
T6 sequence (O75030 whole entry): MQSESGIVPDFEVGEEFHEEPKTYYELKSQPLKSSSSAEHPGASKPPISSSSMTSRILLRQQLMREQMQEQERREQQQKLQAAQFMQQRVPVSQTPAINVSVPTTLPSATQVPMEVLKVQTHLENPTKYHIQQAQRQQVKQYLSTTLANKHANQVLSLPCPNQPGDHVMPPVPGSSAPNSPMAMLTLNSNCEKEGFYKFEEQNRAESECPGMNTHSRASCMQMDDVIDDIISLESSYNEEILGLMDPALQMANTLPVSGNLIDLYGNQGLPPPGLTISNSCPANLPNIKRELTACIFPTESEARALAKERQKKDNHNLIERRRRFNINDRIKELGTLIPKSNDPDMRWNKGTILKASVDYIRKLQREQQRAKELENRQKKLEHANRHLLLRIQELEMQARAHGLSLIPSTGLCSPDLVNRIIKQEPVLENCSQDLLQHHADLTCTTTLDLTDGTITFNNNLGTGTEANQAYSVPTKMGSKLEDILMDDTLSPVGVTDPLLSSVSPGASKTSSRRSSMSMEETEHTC

INS1 = assay: beta cell apoptosis inhibitors, cytokine rescue, dose response, luminescence, retest (AID 449756); type: functional, cell-based; conditions: Rattus norvegicus;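 note: cell death triggered by IL-1 beta plus TNF-alpha plus IFN-gamma mixture; protective hits raise ATP signal compared with cytokine alone wells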

Sequence of Cytochrome P450 3A4 (P08684 whole entry): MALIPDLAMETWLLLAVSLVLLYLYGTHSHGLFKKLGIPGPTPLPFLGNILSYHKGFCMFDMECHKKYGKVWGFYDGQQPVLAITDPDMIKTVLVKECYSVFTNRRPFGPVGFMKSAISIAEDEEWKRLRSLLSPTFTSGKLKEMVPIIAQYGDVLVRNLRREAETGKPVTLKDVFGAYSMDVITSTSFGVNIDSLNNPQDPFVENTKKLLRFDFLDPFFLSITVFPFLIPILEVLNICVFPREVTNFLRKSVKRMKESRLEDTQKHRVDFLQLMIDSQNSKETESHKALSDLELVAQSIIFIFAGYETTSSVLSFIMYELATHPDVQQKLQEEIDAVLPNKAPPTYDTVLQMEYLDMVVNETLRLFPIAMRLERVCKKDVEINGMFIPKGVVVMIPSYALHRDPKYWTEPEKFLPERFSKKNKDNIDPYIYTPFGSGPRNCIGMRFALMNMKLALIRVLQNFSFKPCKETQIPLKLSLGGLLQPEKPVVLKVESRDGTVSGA

In the case of CNc1cc(-c2ccccc2C(F)(F)F)ncn1, the AC50 (Cytochrome P450 3A4) was “inconclusive”.

For O=C(C1=NN[C@@H]2C(=O)N(c3cccc(C(F)(F)F)c3)C(=O)[C@H]12)c1ccc2ccccc2n1, the EC50 [1] was 47.9 µM (inactive) and the EC50 [2] was > 99 µM (inactive).

For CN(C(=O)COC(=O)c1ccc([N+](=O)[O-])cc1N)c1ccccc1, the EC50 [1] was > 99 µM (inactive) and the EC50 [2] was > 99 µM (inactive).

In the case of O=C1NC(=S)NC(=O)C1=NNc1ccc(-c2ccccc2)cc1[N+](=O)[O-], the IC50 (Aminopeptidase N) was 10.5 µM (active), the IC50 (SUMO-activating enzyme [3]) was 4.11 µM (active) and the IC50 (SUMO-activating enzyme [4]) was 22.4 µM (active). The IC50 [5] was 4.83 µM (active).

In the case of O=C(Oc1ccccc1)N1CCC2(CC1)CN(C(c1ccccc1)c1ccccc1)C2, the AC50 (Cytochrome P450 2C19) was 31.6 µM (inconclusive), the AC50 (Cytochrome P450 2C9) was 39.8 µM (inconclusive) and the AC50 (Cytochrome P450 3A4) was “inconclusive”.

For CC(C)CC(C(=O)NC(C)(C)C)N(CC1CCCO1)C(=O)c1snc(C(N)=O)c1N (stereo not drawn), the IC50 (Bcl-2-related protein A1) was > 20 µM (inactive), the IC50 [6] was 13.4 µM (active) and the IC50 [7] was 11.2 µM (active).

For COc1ccc(-c2cc(-c3ccccc3)[n+](C)c(-c3ccccc3)c2)cc1.[O-][Cl+3]([O-])([O-])[O-], the EC50 [8] was > 160 µM (inactive), the EC50 [9] was 0.57 µM (active) and the EC50 [10] was 0.131 µM (active). The EC50 [11] was > 60 µM (not active), the AC50 [12] was 3.2 µM (active) and the AC50 (INS1) was 2.85 µM (active).

With O=C(C[n+]1cccc2ccccc21)c1ccc([N+](=O)[O-])cc1 the AC50 [12] was 6.21 µM (active).

With Cc1ccc(C(=O)N2CCN(c3ccc(C(F)(F)F)cn3)CC2)cc1 the AC50 (Cytochrome P450 3A4) was “inconclusive”.

From ChEMBL document CHEMBL1201862, “PubChem BioAssay data set” (2004)
